For test [1], the system named is Mouse neuroblastoma cells (Neuro-2a cells). Type of test: cell-based. Conditions: 0.10 μM, 48 hours, vs untreated cells; FIG. 6; preliminary data. Here is the method: (§1) Once the three compounds were synthesized the neurite outgrowth assay was used in order to determine the effectiveness of the aza-proline derivatives in comparison with the Glyx-13. Mouse neuroblastoma cells (Neuro-2a cells) were used in order to measure the increase in neurite growth between untreated cells and those treated with the test compounds. A plate reader assay was used where 9,000 cells/cm^2 were treated with the compounds at 0.01, 0.10, and 1.00 μM concentrations for 48 hours. Several controls were used as well, including wells with no cell and compound, cells with no compound (just water), and wells with no cells and water. After treatment with the compounds, the cells were washed in DPBS buffer and treated with cell viability indicator and a membrane stain for 20 minutes before being washed again and treated with a background suppression dye. The plate reader assay was inconclusive for some of the concentrations of the compounds, but the 0.10 μM data is promising. (FIG. 6)

The test system of the next test is neuro-2a cells. The experiment in a line: Confocal microscopy imaging of neuronal cells (neurite outgrowth, qualitative). The settings on record: for number of projections (increase from no treatment): confocal images, FIG. 7. Type of test: cell-based, Mouse. As to the method: as §1

Consider 3 molecules from patent publication US10591461B2, “Method of drug design and optimisation utilizing stereochemical mimicry” (The Trustees of the University of Pennsylvania, priority 2016, dated 2020).

Ends that are not written are not given here.

`C[C@@H](O)[C@H](N)C(=O)N1CCC[C@H]1C(=O)N1CCCN1C(=O)N[C@H](C(N)=O)[C@@H](C)O` [Glyx-2]: the “size of the neurites (membrane stain)” value in test [1] is listed as “significant increase”. Also, in the test on neuro-2a cells, the “number of projections (increase from no treatment)” value is listed as “even more noticeable”. The “effectiveness compared with control compound Glyx-13 (neuronal projections and dendrite length)” value with neuro-2a cells (confocal microscope data) is listed as “significantly more effective”.

With `C[C@@H](O)[C@H](N)C(=O)N1CCCN1C(=O)N1CCC[C@H]1C(=O)N[C@H](C(N)=O)[C@@H](C)O` [Glyx-1], in the test on neuro-2a cells, the “number of projections (increase from no treatment)” value is reported as “even more noticeable”. The same measure, in the same setting: as for “Thr-Pro-Pro-Thr-NH2 (TPPT-NH2) [Glyx-13, tetrapeptide, parent and control compound, NMDA receptor glycine-site partial agonist, reference compound]”, the entry is “significant increase”.
